Holding throughout (assay): growth of human tumour cells (NCI), 48 h
Test [1] concerns HT29 colon.
The subject of test [2] is SK-MEL-5 melanoma.
Test [3] concerns MDA-MB-435.
Test [4] relates to NCI-H522 lung.
The subject of test [5] is NCI-H23 lung.
Test [6] deals with HOP-92 NSCLC.
In test [7] the test system is COLO 205 colon.
The subject of test [8] is SF-268 CNS.
Test [9] deals with ACHN renal.
Test [10] deals with TK-10 renal.
For test [11], the system named is PC-3 prostate.
Test [12] has as its system SK-MEL-28 melanoma.
Test [13] deals with CAKI-1 renal.
Test [14] has as its system MDA-N.
In test [15] the test system is MDA-MB-231 breast.
For test [16], the system named is UACC-62 melanoma.
For test [17], the system named is BT-549 breast.
In test [18] the test system is SW-620 colon.
For test [19], the system named is K-562 leukemia.

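A five-concentration, 48-hour dose response in 96-well plates underlies each endpoint, interpolated linearly between surrounding concentrations. TGI denotes the concentration required for complete inhibition of growth.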 A value given as a limit tells only on which side of the number the result lay.

As to `O=C(NCCNCCNCCNC(=O)c1cc(-c2ccccc2)nc2ccccc12)c1cc(-c2ccccc2)nc2ccccc12`, the TGI in [1] is 3.14 µM; in test [2], 2.88 µM; in test [3], 3.23 µM; in [4], 3.13 µM; in [5] it was 13.1 µM; in test [6], 7.81 µM. The TGI turned out to be 4 µM in [7]; 10.1 µM in test [8]; 4.91 µM in test [9]; 11.4 µM in test [10]; 14.1 µM in test [11]; 3.08 µM in test [12]. The TGI stood at 29.4 µM in test [13]; 2.97 µM in [14]; 7.57 µM in test [15]; 3.97 µM in [16]; 21.9 µM in test [17]; 3.31 µM in [18]. Besides, the TGI in test [19] worked out at 4.12 µM.
With `CN1C(=O)c2c(c3c4ccccc4n(C4OC(CO)C(O)C(O)C4O)c3c3[nH]c4ccccc4c23)C1=O` (stereo not drawn), the TGI came out at 9.52 µM in test [1]; 3.29 µM in [2]; 6.95 µM in test [3]; 1.66 µM in test [4]; 9.6 µM in test [5]; 5.86 µM in test [6]. Further, the TGI in test [7] worked out at 6.79 µM; in test [8] it was 4.85 µM; in test [9] it was 6.45 µM; in [10], 13.7 µM; in test [11] it was 9.62 µM; in test [12] it was 8.43 µM. Further, the TGI in test [13] worked out at 5.3 µM; in test [14], 7.24 µM; in test [15] it was 5.33 µM; in test [16], 4.09 µM; in test [17], 33.8 µM; in [18] it was 16.2 µM. The TGI in test [19] is over 100 µM.
With `Nc1ccc2cc3[nH]c4cc(N)ccc4c3nc2c1`, the TGI in [1] was determined as 1.48 µM; in test [2], 0.923 µM; in test [3], 1.23 µM; in [4] it was 64.6 µM; in test [5], 0.893 µM; in test [6] it was 0.737 µM. Moreover, the TGI in test [7] came to 1.27 µM; in test [8], 1.8 µM; in test [9], 0.257 µM; in [10], 7.98 µM; in test [11], 1.49 µM; in [12] it was 0.317 µM. Also, the TGI in [13] stood at 0.636 µM; in test [14], 1.13 µM; in test [15] it was 2.09 µM; in [16], 0.708 µM; in test [17], 3.15 µM; in test [18] it was 0.845 µM. In test [19], this compound had a TGI of over 22.6 µM.
For the compound `COC(=O)[C@@H]1C2OC(C)(C)OC2CN1C(=O)OCc1ccccc1` (stereo partly drawn), the TGI in test [1], in [2], in test [3], in test [4], in test [5] and in test [6] was over 100 µM each time. The TGI in test [7], in test [8], in [9], in [10], in test [11] and in test [12] was over 100 µM throughout. The TGI in test [13], in test [14], in [15], in test [16], in [17] and in test [18] was over 100 µM throughout. In test [19], the TGI is over 100 µM.
As to `CCOC(=O)CCC(NC(=O)c1ccc(Nc2nc3ccccc3n3cccc23)cc1)C(=O)OCC` (stereo not drawn), the TGI in test [1] is over 100 µM; in [2] it was over 100 µM; in test [3], over 100 µM; in test [4] it was 60 µM; in test [5] it was over 100 µM; in [6], over 100 µM. The TGI is over 100 µM in [7]; over 100 µM in test [8]; 46 µM in [9]; 64.7 µM in test [10]; 34.5 µM in test [11]; over 100 µM in test [12]. In addition, the TGI in test [13] is over 100 µM; in test [14] it was over 100 µM; in [15], 48.4 µM; in test [16], 53.6 µM; in [17], 77.3 µM; in test [18], over 100 µM. This compound also displayed a TGI in test [19] of over 100 µM.
As to `CC(C)(C)OC(=O)NC(Cc1ccc(OCc2ccccc2)cn1)C(=O)NCc1ccccc1` (stereo not drawn), the TGI is over 100 µM in test [1]; 26 µM in test [2]; 48.1 µM in test [3]; 47.1 µM in [4]; 47.3 µM in test [5]; 60.4 µM in [6]. In addition, the TGI in [7] was 30.8 µM; in test [8], 75 µM; in [9], over 100 µM; in test [10], over 100 µM; in test [11], 53 µM; in test [12], over 100 µM. The TGI in test [13] was over 100 µM; in [14] it was 43.8 µM; in test [15], 75.1 µM; in test [16], 32.5 µM; in [17] it was 48.6 µM; in [18], over 100 µM. The same compound returned a TGI in [19] of over 100 µM.
Turning to `O=C1CSC(c2ccc(Cl)cc2)N1c1ccc(-c2ccc(-n3c(-c4ccccc4)nc4ccccc4c3=O)cc2)cc1` (stereo not drawn), the TGI was 41.5 µM in [1]; over 100 µM in [2]; 71.3 µM in test [3]; over 100 µM in [4]; over 100 µM in test [5]; 97.9 µM in test [6]. Besides, the TGI in test [7], in test [8], in [9], in test [10], in test [11] and in test [12] was over 100 µM throughout. Besides, the TGI in test [13], in [14], in [15], in [16], in test [17] and in test [18] was over 100 µM throughout. The TGI in test [19] was over 100 µM.
